Measurements published in ChEMBL document CHEMBL3045108, “Advanced QSRR models of toxicological screening of basic drugs in whole blood by UPLC-TOFMS” (Med Chem Res, 2012).

Tested on: Blood
Experiment: Drug level in Homo sapiens (human) whole blood assessed as retention time by UPLC-TOF-MS analysis

**Q.** With O=C1Nc2ccc(Cl)cc2C(c2ccccc2Cl)=NC1O (stereo not given) [LORAZEPAM] as the compound, how does the Retention_time read?
**A.** 6.02 min

**Q.** With CN1C(=O)C(O)N=C(c2ccccc2Cl)c2cc(Cl)ccc21 (stereo not given) [LORMETAZEPAM] as the compound, how does the Retention_time read?
**A.** 6.41 min

**Q.** CCCCc1nc(Cl)c(CO)n1Cc1ccc(-c2ccccc2-c2nn[nH]n2)cc1 [LOSARTAN] was tested. Which Retention_time did it give?
**A.** 6.09 min

**Q.** Which Retention_time does the source give for CCN(CC)C(=O)[C@@H]1C=C2c3cccc4[nH]cc(c34)C[C@H]2N(C)C1 [LYSERGIDE] here?
**A.** 4.88 min

**Q.** How did the Retention_time turn out when CN1CCN=C(c2ccccc2)c2cc(Cl)ccc21 [MEDAZEPAM] was run?
**A.** 5.45 min

**Q.** CCOC(=O)C1(c2ccccc2)CCN(C)CC1 [MEPERIDINE] was tested. Which Retention_time did it give?
**A.** 4.68 min

**Q.** How did the Retention_time turn out when Cc1cccc(C)c1NC(=O)C1CCCCN1C (stereo not given) [MEPIVACAINE] was run?
**A.** 3.46 min

**Q.** With COc1cc(CCN)cc(OC)c1OC [MESCALINE] as the compound, how does the Retention_time read?
**A.** 2.77 min

**Q.** Which Retention_time does the source give for CCC(=O)C(CC(C)N(C)C)(c1ccccc1)c1ccccc1 (stereo not given) [METHADONE] here?
**A.** 6.03 min

**Q.** CN[C@@H](C)Cc1ccccc1 [METHAMPHETAMINE] was tested. Which Retention_time did it give?
**A.** 2.86 min

**Q.** Cc1ccccc1-n1c(C)nc2ccccc2c1=O [METHAQUALONE] was tested. Which Retention_time did it give?
**A.** 6.02 min

**Q.** How did the Retention_time turn out when COC(=O)C(c1ccccc1)C1CCCCN1 (stereo not given) [METHYLPHENIDATE] was run?
**A.** 4.16 min

**Q.** CCN(CC)CCNC(=O)c1cc(Cl)c(N)cc1OC [METOCLOPRAMIDE] was tested. Which Retention_time did it give?
**A.** 3.64 min

**Q.** With CN1CCN2c3ccccc3Cc3ccccc3C2C1 (stereo not given) [MIANSERIN] as the compound, how does the Retention_time read?
**A.** 5.48 min

**Q.** With Cc1ncc2n1-c1ccc(Cl)cc1C(c1ccccc1F)=NC2 [MIDAZOLAM] as the compound, how does the Retention_time read?
**A.** 5.45 min

**Q.** How did the Retention_time turn out when CNC(C)Cc1ccc2c(c1)OCO2 (stereo not given) [MIDOMAFETAMINE] was run?
**A.** 2.89 min

**Q.** With CN1CCN2c3ncccc3Cc3ccccc3C2C1 (stereo not given) [MIRTAZAPINE] as the compound, how does the Retention_time read?
**A.** 3.91 min

**Q.** O=C(NCCN1CCOCC1)c1ccc(Cl)cc1 [MOCLOBEMIDE] was tested. Which Retention_time did it give?
**A.** 3.39 min

**Q.** Which Retention_time does the source give for C=CCN1CC[C@]23c4c5ccc(O)c4O[C@H]2C(=O)CC[C@@]3(O)[C@H]1C5 [NALOXONE] here?
**A.** 2.46 min

**Q.** Which Retention_time does the source give for COC(=O)C1=C(C)NC(C)=C(C(=O)OC)C1c1ccccc1[N+](=O)[O-] [NIFEDIPINE] here?
**A.** 6.4 min

**Q.** For COCCOC(=O)C1=C(C)NC(C)=C(C(=O)OC(C)C)C1c1cccc([N+](=O)[O-])c1 (stereo not given) [NIMODIPINE], which Retention_time is on record?
**A.** 7.14 min

**Q.** How did the Retention_time turn out when O=C1CN=C(c2ccccc2)c2cc([N+](=O)[O-])ccc2N1 [NITRAZEPAM] was run?
**A.** 5.8 min

**Q.** O=C1CC(=O)N(c2ccccc2)c2cc(Cl)ccc2N1 [NOR-CLOBAZAM] was tested. Which Retention_time did it give?
**A.** 5.61 min

**Q.** Which Retention_time does the source give for NCCC(Oc1ccc(C(F)(F)F)cc1)c1ccccc1 (stereo not given) [NORFLUOXETINE] here?
**A.** 6 min

**Q.** How did the Retention_time turn out when CNCCC=C1c2ccccc2CCc2ccccc21 [NORTRIPTYLINE] was run?
**A.** 5.92 min

**Q.** How did the Retention_time turn out when COc1ccc2c(c1OC)C(=O)O[C@@H]2[C@H]1c2c(cc3c(c2OC)OCO3)CCN1C [NOSCAPINE] was run?
**A.** 4.99 min

**Q.** Which Retention_time does the source give for Cc1ccccc1C(OCCN(C)C)c1ccccc1 (stereo not given) [ORPHENADRINE] here?
**A.** 5.75 min

**Q.** For NC(=O)N1c2ccccc2CC(=O)c2ccccc21 [OXCARBAZEPINE], which Retention_time is on record?
**A.** 5.29 min

**Q.** For COc1ccc2c3c1O[C@H]1C(=O)CC[C@@]4(O)[C@@H](C2)N(C)CC[C@]314 [OXYCODONE], which Retention_time is on record?
**A.** 2.67 min

**Q.** CN1CC[C@]23c4c5ccc(O)c4O[C@H]2C(=O)CC[C@@]3(O)[C@H]1C5 [OXYMORPHONE] was tested. Which Retention_time did it give?
**A.** 1.78 min

**Q.** How did the Retention_time turn out when COc1ccc(CC(C)N)cc1 (stereo not given) [PARA-METHOXYAMPHETAMINE] was run?
**A.** 2.91 min

**Q.** Which Retention_time does the source give for Fc1ccc([C@@H]2CCNC[C@H]2COc2ccc3c(c2)OCO3)cc1 [PAROXETINE] here?
**A.** 5.66 min

**Q.** For O=C1CN=C(c2ccccc2Cl)c2cc(Br)ccc2N1 [PHENAZEPAM], which Retention_time is on record?
**A.** 6.45 min

**Q.** For c1ccc(C2(N3CCCCC3)CCCCC2)cc1 [PHENCYCLIDINE], which Retention_time is on record?
**A.** 5.23 min

**Q.** CC(C)(N)Cc1ccccc1 [PHENTERMINE] was tested. Which Retention_time did it give?
**A.** 3.08 min

**Q.** With O=c1[nH]c2ccccc2n1C1CCN(CCCC(c2ccc(F)cc2)c2ccc(F)cc2)CC1 [PIMOZIDE] as the compound, how does the Retention_time read?
**A.** 6.28 min

**Q.** CC(C)NCC(O)COc1cccc2[nH]ccc12 (stereo not given) [PINDOLOL] was tested. Which Retention_time did it give?
**A.** 3 min

**Q.** How did the Retention_time turn out when O=C1CN=C(c2ccccc2)c2cc(Cl)ccc2N1CC1CC1 [PRAZEPAM] was run?
**A.** 7.25 min

**Q.** Which Retention_time does the source give for OC(CCN1CCCC1)(c1ccccc1)C1CCCCC1 (stereo not given) [PROCYCLIDINE] here?
**A.** 5.78 min

**Q.** Which Retention_time does the source give for CC(CN1c2ccccc2Sc2ccccc21)N(C)C (stereo not given) [PROMETHAZINE] here?
**A.** 5.7 min

**Q.** For CCC(=O)O[C@](Cc1ccccc1)(c1ccccc1)[C@H](C)CN(C)C [PROPOXYPHENE], which Retention_time is on record?
**A.** 5.98 min

**Q.** For CC(C)NCC(O)COc1cccc2ccccc12 (stereo not given) [PROPRANOLOL], which Retention_time is on record?
**A.** 5.28 min

**Q.** Which Retention_time does the source give for CN[C@@H](C)[C@@H](O)c1ccccc1 [PSEUDOEPHEDRINE] here?
**A.** 2.28 min

**Q.** How did the Retention_time turn out when COc1ccc(CN(CCN(C)C)c2ccccn2)cc1 [PYRILAMINE] was run?
**A.** 4.57 min

**Q.** Fc1ccccc1C1=NCC(=S)N(CC(F)(F)F)c2ccc(Cl)cc21 [QUAZEPAM] was tested. Which Retention_time did it give?
**A.** 7.59 min

**Q.** How did the Retention_time turn out when OCCOCCN1CCN(C2=Nc3ccccc3Sc3ccccc32)CC1 [QUETIAPINE] was run?
**A.** 5.35 min

**Q.** With CCOc1ccccc1OC(c1ccccc1)C1CNCCO1 (stereo not given) [REBOXETINE] as the compound, how does the Retention_time read?
**A.** 5.6 min

**Q.** How did the Retention_time turn out when OCc1cc(C(O)CNCCCCCCOCCCCc2ccccc2)ccc1O (stereo not given) [SALMETEROL] was run?
**A.** 6.14 min

**Q.** Which Retention_time does the source give for C#CCN(C)[C@H](C)Cc1ccccc1 [SELEGILINE] here?
**A.** 3.55 min

**Q.** Which Retention_time does the source give for O=C1NCCN1CCN1CCC(c2cn(-c3ccc(F)cc3)c3ccc(Cl)cc23)CC1 [SERTINDOLE] here?
**A.** 6.3 min

**Q.** CN[C@H]1CC[C@@H](c2ccc(Cl)c(Cl)c2)c2ccccc21 [SERTRALINE] was tested. Which Retention_time did it give?
**A.** 6.04 min

**Q.** For CC(C)NCC(O)c1ccc(NS(C)(=O)=O)cc1 (stereo not given) [SOTALOL], which Retention_time is on record?
**A.** 2.02 min

**Q.** CCN1CCCC1CNC(=O)c1cc(S(N)(=O)=O)ccc1OC (stereo not given) [SULPIRIDE] was tested. Which Retention_time did it give?
**A.** 2.21 min

**Q.** Which Retention_time does the source give for CC(N)Cc1ccc2c(c1)OCO2 (stereo not given) [TENAMFETAMINE] here?
**A.** 2.7 min

**Q.** With CC(C)(C)NCC(O)c1cc(O)cc(O)c1 (stereo not given) [TERBUTALINE] as the compound, how does the Retention_time read?
**A.** 1.93 min

**Q.** For CN1[C@H]2CC[C@@H]1[C@@H](C(=O)O)[C@@H](OC(=O)c1ccccc1)C2 [THERACYS], which Retention_time is on record?
**A.** 3.48 min

**Q.** With CCCCNC(=O)NS(=O)(=O)c1ccc(C)cc1 [TOLBUTAMIDE] as the compound, how does the Retention_time read?
**A.** 6.16 min

**Q.** COc1cccc(C2(O)CCCCC2CN(C)C)c1 (stereo not given) [TRAMADOL] was tested. Which Retention_time did it give?
**A.** 4.09 min

**Q.** How did the Retention_time turn out when Cc1nnc2n1-c1ccc(Cl)cc1C(c1ccccc1Cl)=NC2 [TRIAZOLAM] was run?
**A.** 6.15 min

**Q.** For CC(CN(C)C)CN1c2ccccc2CCc2ccccc21 (stereo not given) [TRIMIPRAMINE], which Retention_time is on record?
**A.** 6.05 min

**Q.** How did the Retention_time turn out when COc1ccc(C(CN(C)C)C2(O)CCCCC2)cc1 (stereo not given) [VENLAFAXINE] was run?
**A.** 5.06 min

**Q.** CCN(C(C)=O)c1cccc(-c2ccnc3c(C#N)cnn23)c1 [ZALEPLON] was tested. Which Retention_time did it give?
**A.** 5.68 min

**Q.** For CN(C)CCc1c[nH]c2ccc(C[C@H]3COC(=O)N3)cc12 [ZOLMITRIPTAN], which Retention_time is on record?
**A.** 2.7 min

**Q.** Cc1ccc(-c2nc3ccc(C)cn3c2CC(=O)N(C)C)cc1 [ZOLPIDEM] was tested. Which Retention_time did it give?
**A.** 4.78 min

**Q.** For CN1CCN(C(=O)OC2c3nccnc3C(=O)N2c2ccc(Cl)cn2)CC1 (stereo not given) [ZOPICLONE], which Retention_time is on record?
**A.** 3.88 min
